In this test the test system is H9 cells. Kind of test: qHTS for survival of dissociated H9 cells (CellTiter-Glo, 24 hours after seeding). In kind it is cell-based, human. The text has this:
FIG. 2 schematically illustrates qHTS procedure.
All the screed compounds were received pre-plated at the pre-determined concentrations. […] Curve classification is explained in Huang et al. “Chemical genomics profiling of environmental chemical modulation of human nuclear receptors” Environ. Health. Perspect.
Background: In qHTS, concentration-response curves come from the screen itself.

Where [1] appears, read: H9 cell survival normalized to 10 μM Y-27632 (taken to be 100%).
Setting [2] is: H9 cell survival, CellTiter-Glo 24 hours after seeding; read-out: AC50 (concentration at 50% efficacy).
The mark [3] stands for this setting: H9 cell survival, normalized to 10 μM Y-27632.
[4] abbreviates: Homo sapiens, H9, 24 h, read-out: AC50 (concentration at 50% efficacy).
[5] abbreviates: Homo sapiens, H9, 24 h, read-out: Efficacy (activity range between predicted activities at zero and infinite doses, Hill equation).
Setting [6] is: Homo sapiens, H9, 24 h, read-out: Max (maximum activity value from all tested concentrations).
Setting [7] is: Homo sapiens, H9, 24 h, H9 cell survival normalized to 10 μM Y-27632 (taken to be 100%); read-out: Max (maximum activity value from all tested concentrations).
Setting [8] is: Homo sapiens, H9, 24 h, H9 cell survival, CellTiter-Glo 24 hours after seeding; read-out: AC50 (concentration at 50% efficacy).
Setting [9] is: Homo sapiens, H9, 24 h, H9 cell survival, normalized to 10 μM Y-27632; read-out: Efficacy (activity range between predicted activities at zero and infinite doses, Hill equation).

Several values for one entry are separate records, joined by “and”; a condition that tells them apart may be missing. Equal entries are not always repeated. Structures can show the parent of a compound that is named as a salt. Where two headings read alike, the source gives them in different places.

Regarding `O=C(Nc1ccc(-c2ccnc(Nc3ccc(N4CCOCC4)cc3)n2)cc1)[C@@H]1CCCN1` [XL-19], the “Max (maximum activity value from all tested concentrations)” value under setting [1] was 29.98%. Under setting [2], the AC50 was found to be 23.3 µM. Besides, the “Efficacy (activity range between predicted activities at zero and infinite doses, Hill equation)” value under setting [3] is on record as 35.5.
Consider `C=C(NC(=O)C(=C)NC(=O)c1csc(C2=N[C@@H]3c4csc(n4)[C@H]4NC(=O)c5csc(n5)[C@H]([C@](C)(O)[C@@H](C)O)NC(=O)[C@H]5CSC(=N5)/C(=C/C)NC(=O)[C@H]([C@@H](C)O)NC(=O)c5csc(n5)[C@]3(CC2)NC(=O)[C@H](C)NC(=O)C(=C)NC(=O)[C@H](C)NC(=O)[C@H]([C@@H](C)CC)N[C@@H]2C=Cc3c([C@H](C)O)cc(nc3[C@H]2O)C(=O)O[C@@H]4C)n1)C(N)=O` [Thiostrepton from Streptomyces azureus, Thiostrepton], for which the AC50 under setting [4] amounted to 14.7 µM. The Emax is, setting by setting: under setting [5], 30.2%; under setting [6], 28.4%.
As to `CCS(=O)(=O)N1CC(CC#N)(n2cc(-c3ncnc4[nH]ccc34)cn2)C1` [Baricitinib], the Emax under setting [7] came out at 115%.
For the compound `C/C=C(/C)C(=O)O[C@H]1C(C)=C[C@]23C(=O)[C@@H](C=C(CO)[C@@H](O)[C@]12O)[C@H]1[C@@H](C[C@H]3C)C1(C)C` [Ingenol mebutate], the Emax is, setting by setting: (Homo sapiens, H9, 24 h; read-out: Efficacy (activity range between predicted activities at zero and infinite doses, Hill equation)) 41.4%; (Homo sapiens, H9, 24 h; read-out: Max (maximum activity value from all tested concentrations)) 57.6%. For the setting “Homo sapiens; H9 cell survival, CellTiter-Glo 24 hours after seeding; read-out: AC50 (concentration at 50% efficacy)”, the AC50 was determined as 0.118 µM.
As to `N#Cc1cccc(-c2c[nH]c3ncnc(N4CCOCC4)c23)c1` [PF-06447475], the “Max (maximum activity value from all tested concentrations)” value under setting [1] is reported as 42.8%. Also, the AC50 under setting [2] came out at 16.5 µM. The “Efficacy (activity range between predicted activities at zero and infinite doses, Hill equation)” value under setting [3] is recorded as 44.6.
On the same counts, the results for `C=C1[C@@H](C)[C@H]2[C@H](Cc3ccccc3)NC(=O)[C@]23OC(=O)/C=C/[C@H](O)CCC[C@@H](C)C/C=C/[C@H]3[C@@H]1O` [Cytochalasin B] are 14.14%, 7.5 µM and 43.2.
Turning to `CC(=O)O[C@H]1C(=O)[C@]2(C)C(O)C[C@H]3OC[C@@]3(OC(C)=O)[C@H]2[C@H](OC(=O)c2ccccc2)[C@]2(O)C[C@H](O)C(C)=C1C2(C)C` (some centres unmarked) [NCGC00384655-01], under setting [1], the “Max (maximum activity value from all tested concentrations)” value amounted to 23.91%. Besides, the AC50 under setting [2] is 1.74 µM. The “Efficacy (activity range between predicted activities at zero and infinite doses, Hill equation)” value under setting [3] is listed as 29.1.
As for `N#CC[C@H](C1CCCC1)n1cc(-c2ncnc3[nH]ccc23)cn1` [Ruxolitinib], under setting [2], the AC50 is 8.26 µM and 11.8 µM.
For the compound `NC1(Cc2ccc(Cl)cc2)CCN(c2ncnc3[nH]ccc23)CC1` [CCT-128930], the “Max (maximum activity value from all tested concentrations)” value under setting [1] was 106.8%. Further, the AC50 under setting [2] turned out to be 11.8 µM. Also, the “Efficacy (activity range between predicted activities at zero and infinite doses, Hill equation)” value under setting [3] was 133.
Regarding `CCn1c(-c2nonc2N)nc2cncc(CNC3CCNCC3)c21` [SB-747651-A], the “Max (maximum activity value from all tested concentrations)” value under setting [1] is 78.33% and 111.1%. Further, the “Efficacy (activity range between predicted activities at zero and infinite doses, Hill equation)” value under setting [3] was 35.5 and 68.7.
`Oc1cccc2c(O)nccc12` [1,5-Isoquinolinediol]: the Emax is, setting by setting: under setting [7], 41%; under setting [9], 42.2%. Further, the AC50 under setting [8] came to 18.4 µM.
With `CN(C)c1ccc(Nc2nc(N)n(C(=O)c3c(F)cccc3F)n2)cc1` [NCGC00244250], the “Max (maximum activity value from all tested concentrations)” value under setting [1] was 58.27% and 40.04%. The AC50 under setting [2] was 6.56 µM and 8.33 µM. Besides, the “Efficacy (activity range between predicted activities at zero and infinite doses, Hill equation)” value under setting [3] is 23.7 and 39.3.
With `CN1CCN(Cc2ccc(-c3cnc4[nH]cc(-c5ccc6[nH]ccc6c5)c4c3)cc2)CC1` [URMC-099], the Emax is 27.1% under setting [7] and 33.6% under setting [9]. In addition, under setting [8], the AC50 turned out to be 5.21 µM.
In the same order, the values of `O=S(=O)(c1cccc2cnccc12)N1CCCNCC1` [Fasudil hydrochloride] are 107%, 127% and 33.2 µM.
Consider `C[C@]12C[C@@H](O)[C@H]3[C@@H](CC[C@@H]4C[C@@H](O)CC[C@@]43CO)[C@@]1(O)CC[C@@H]2C1=CC(=O)OC1` [19-hydroxysarmentogenin], for which the “Max (maximum activity value from all tested concentrations)” value under setting [1] is 21.79%. Further, the AC50 under setting [2] was 0.004 µM. Also, the “Efficacy (activity range between predicted activities at zero and infinite doses, Hill equation)” value under setting [3] is recorded as −11.5.
`CC1(C)CC[C@]2(C(=O)O[C@@H]3O[C@H](CO[C@@H]4O[C@H](CO)[C@@H](O)[C@H](O)[C@H]4O[C@@H]4O[C@H](CO)[C@H](O)[C@H](O)[C@H]4O)[C@@H](O)[C@H](O[C@@H]4O[C@H](CO)[C@@H](O)[C@H](O)[C@H]4O)[C@H]3O)CC[C@]3(C)C(=CCC4[C@@]5(C)CC[C@H](O[C@@H]6OC[C@@H](O)[C@H](O)[C@H]6O)[C@@](C)(C(=O)O)C5CC[C@]43C)[C@@H]2C1` (some centres unmarked) [NCGC00384798-01]: the “Max (maximum activity value from all tested concentrations)” value under setting [1] was 38.81%. For the same compound, the “Efficacy (activity range between predicted activities at zero and infinite doses, Hill equation)” value under setting [3] is recorded as 0.
As to `C[C@@H]1CCN(C(=O)N2CCCC2)C[C@@H]1N(C)c1ncnc2[nH]ccc12` [PF-956980], the “Max (maximum activity value from all tested concentrations)” value under setting [1] stood at 47.75%. The AC50 under setting [2] was 23.3 µM. Further, under setting [3], the “Efficacy (activity range between predicted activities at zero and infinite doses, Hill equation)” value is recorded as 53.
For the compound `C[C@]12O[C@H](C[C@]1(O)CO)n1c3ccccc3c3c4c(c5c6ccccc6n2c5c31)CNC4=O` [Lestaurtinib], the AC50 under setting [4] came out at 1.18 µM. Also, the Emax reads like this: under setting [5], 7.59%; under setting [6], 53%.
`C/C=C/C(=O)C(C)C1=CC(=O)C2=C(OC34CC[C@H](O)C(C)(C)[C@@H]3CC[C@H](C)C4(C)C2)C1=O` (some centres unmarked) [podosporin A]: the “Max (maximum activity value from all tested concentrations)” value under setting [1] worked out at 26.17%. For the same compound, the “Efficacy (activity range between predicted activities at zero and infinite doses, Hill equation)” value under setting [3] was 0.
`CC1CN(S(=O)(=O)c2cccc3cnccc23)CCN1.Cl.Cl` (centres unmarked) [1-05-IsoquinolinylstilfonyI)-3-methylpiperazine dihydroehloride]: the “Max (maximum activity value from all tested concentrations)” value under setting [1] was determined as 100.6%. Further, the AC50 under setting [2] amounted to 20.6 µM. For the same compound, the “Efficacy (activity range between predicted activities at zero and infinite doses, Hill equation)” value under setting [3] is reported as 102.
In the same order, the values of (−)-Indolactam V are 51.21%, 0.833 µM and 45.5.
Take `O=C(NCc1cccc(O)c1)Nc1nc(-c2ccncc2)cs1` [RKI-1447]: under setting [1], the “Max (maximum activity value from all tested concentrations)” value came to 103.2%. Moreover, the AC50 under setting [2] was determined as 0.083 µM. The “Efficacy (activity range between predicted activities at zero and infinite doses, Hill equation)” value under setting [3] is reported as 106.
On the same counts, the results for `Cc1cccc(NC(=O)c2ccc(C(F)(F)F)cc2C(=O)O)n1` [AF38469] are 22.96%, 5.21 µM and 29.6.
Take `Cn1c(=O)c2c(ncn2CC2OCCO2)n(C)c1=O` [Doxofylline]: the AC50 under setting [8] came to 0.521 µM. In addition, the Emax by setting is: under setting [5], 12.1%; under setting [6], 22.5%.
In the case of `COC(=O)c1cc(Br)cnc1N1CCC(NC2CCCCC2)C(O)C1` (centres unmarked) [NCGC00386932-01], the “Max (maximum activity value from all tested concentrations)” value under setting [1] is given as 22.59%. Further, under setting [2], the AC50 was found to be 0.004 µM. In addition, the “Efficacy (activity range between predicted activities at zero and infinite doses, Hill equation)” value under setting [3] was −26.5.

The values above are taken from patent publication US20210348119A1, “COMPOSITIONS AND METHODS FOR CELL CULTURE” (The United States of America as Represented By The …, priority 2018, published 2021).
